Data taken from the supplement of paper PMC6045584.
± gives the standard deviation of the averaged measurements.

Assays:
BEZ-235 = compound: Cn1c(=O)n(-c2ccc(C(C)(C)C#N)cc2)c2c3cc(-c4cnc5ccccc5c4)ccc3ncc21 [BEZ-235]; test: surviving fraction relative to DMSO-only wells; higher = less growth inhibition; settings: exposure time: 5 days
In short: (§1)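 For each tumour cell line, log-phase cells were put into 384-well plates at 250–500 cells per well, then after 24 hours exposed continuously for five days to inhibitors at 0.5, 1, 5, 10, 50, 100, 500 and 1000 nM. Viability was assessed by CellTiter-Glo luminescence, with surviving fraction expressed relative to the median of DMSO-only wells. Lines were screened three times and retained only if replicate Pearson r exceeded 0.7 and median Z' exceeded 0.3.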

NILOTINIB = compound: Cc1cn(-c2cc(NC(=O)c3ccc(C)c(Nc4nccc(-c5cccnc5)n4)c3)cc(C(F)(F)F)c2)cn1 [NILOTINIB]; test: as above; settings: exposure time: 5 days
In short: as §1

Test System	surviving fraction (BEZ-235; 0.5 nM)	surviving fraction (BEZ-235; 1 nM)	surviving fraction (BEZ-235; 5 nM)	surviving fraction (BEZ-235; 10 nM)	surviving fraction (BEZ-235; 50 nM)	surviving fraction (BEZ-235; 100 nM)	surviving fraction (BEZ-235; 500 nM)	surviving fraction (BEZ-235; 1000 nM)	surviving fraction (NILOTINIB; 0.5 nM)	surviving fraction (NILOTINIB; 1 nM)	surviving fraction (NILOTINIB; 5 nM)	surviving fraction (NILOTINIB; 10 nM)	surviving fraction (NILOTINIB; 50 nM)	surviving fraction (NILOTINIB; 100 nM)	surviving fraction (NILOTINIB; 500 nM)	surviving fraction (NILOTINIB; 1000 nM)
CASKI CERVIX	0.872 ± 0.028	0.922 ± 0.016	0.896 ± 0.065	0.882 ± 0.081	0.452 ± 0.021	0.292 ± 0.0061	0.127 ± 0.0064	0.096 ± 0.0036	0.914 ± 0.026	0.993 ± 0.024	1.01 ± 0.063	0.96 ± 0.045	0.88 ± 0.063	0.785 ± 0.035	0.764 ± 0.13	0.77 ± 0.075
HU09 BONE	1.04 ± 0.18	1.07 ± 0.059	1.19 ± 0.053	1.12 ± 0.1	0.572 ± 0.025	0.416 ± 0.025	0.181 ± 0.013	0.134 ± 0.006	0.958 ± 0.043	1.06 ± 0.1	0.999 ± 0.096	1.09 ± 0.051	0.861 ± 0.19	0.756 ± 0.067	0.481 ± 0.014	0.397 ± 0.075
MDAMB157 BREAST	0.983 ± 0.056	0.974 ± 0.1	0.936 ± 0.12	1.02 ± 0.11	0.825 ± 0.094	0.752 ± 0.081	0.454 ± 0.06	0.381 ± 0.008	1.11 ± 0.045	0.957 ± 0.047	1.09 ± 0.083	1.11 ± 0.041	1.1 ± 0.066	1.07 ± 0.018	0.932 ± 0.17	0.928 ± 0.063
NCIH441 LUNG	1.16 ± 0.081	1.11 ± 0.1	1.1 ± 0.027	1.11 ± 0.11	1.21 ± 0.064	0.997 ± 0.1	0.527 ± 0.027	0.356 ± 0.061	1.08 ± 0.14	1.01 ± 0.024	1.11 ± 0.037	1.05 ± 0.043	0.986 ± 0.11	0.91 ± 0.17	0.874 ± 0.022	0.889 ± 0.064
DU4475 BREAST	0.914 ± 0.16	1.05 ± 0.13	0.919 ± 0.16	0.835 ± 0.1	0.525 ± 0.064	0.194 ± 0.018	0.0427 ± 0.0085	0.035 ± 0.0035	1.12 ± 0.018	1.06 ± 0.023	1.14 ± 0.13	1.06 ± 0.063	0.925 ± 0.088	1.06 ± 0.1	1.05 ± 0.066	0.9 ± 0.061
HT1080 SOFT TISSUE	0.985 ± 0.022	1.03 ± 0.011	1 ± 0.025	0.996 ± 0.055	0.6683 ± 0.0059	0.496 ± 0.021	0.221 ± 0.01	0.162 ± 0.0061	1.02 ± 0.058	1.04 ± 0.032	1.06 ± 0.027	1.04 ± 0.011	0.991 ± 0.02	0.978 ± 0.027	0.98 ± 0.027	0.957 ± 0.027
MDAMB231 BREAST	1.01 ± 0.026	1.02 ± 0.034	1.01 ± 0.032	0.959 ± 0.037	0.574 ± 0.016	0.437 ± 0.019	0.231 ± 0.0068	0.227 ± 0.013	0.935 ± 0.052	0.919 ± 0.025	0.866 ± 0.036	0.839 ± 0.038	0.763 ± 0.043	0.857 ± 0.017	0.923 ± 0.036	0.866 ± 0.039
